How the values were obtained:
[1] = In vitro enzyme assay to detect hydrolysis of chlorophenol red-beta-D-[…] directly proportional to the number of Toxoplasma stably expressing beta-galactosidase; format: functional, organism-based, Toxoplasma gondii; conditions: for IC50: Toxoplasma gondii
[2] = microbe, parasite or virus in culture; conditions: Mycobacterium tuberculosis, 72 h, read-out: pIC50 (converted)
Schistosoma mansoni = assay: High throughput screening of compounds against Schistosoma mansoni motility; format: functional; design: dose or concentration left out as unconfirmed
[3] = microbe, parasite or virus in culture; conditions: Mycobacterium tuberculosis, 96 h, read-out: pIC50 (converted)

| SMILES | IC50 [1] [µM] | further results |
| --- | --- | --- |
| CCN1CC2(CC1=O)CN(Cc1ccncc1)CCN(C(=O)C(C)C)C2 (stereo not drawn) | > 50.1 | – |
| Cc1nnc(NCc2cccc(OCC3CCCO3)c2)c(C#N)c1C (stereo not drawn) | > 50.1 | – |
| c1nc(N2CCOCC2)nc2c1COCC21CCN(CC2CC2)C1 (stereo not drawn) | 44 | pIC50 [1]: < 4.3 |
| CCC(=O)c1cccc(OC)n1 | > 50.1 | – |
| COc1ccc(CC(=O)NCC2CCCNC2)cc1F (stereo not drawn) | > 50.1 | – |
| CC(=O)N1CC[C@@]2(C(=O)Nc3ccccc3)CCN(S(C)(=O)=O)CC[C@@H]12 | > 50.1 | – |
| CCCc1ccc(C(=O)N[C@@H]2CCOC[C@H]2O)cc1 | > 50.1 | – |
| c1nc(N2CCNCC2)c2sccc2n1 | > 50.1 | – |
| CCc1c(C)sc(NC(=O)CN2CCN(CC)CC2)c1C(=O)OC | – | IC50 [2]: 2.52 µM; Percent Effect (Schistosoma mansoni): 98.89%; IC50 [3]: 15.4 µM |
| CC(C)S(=O)(=O)N1CCN(C(=O)c2cnn(C)c2Cl)CC1 | > 50.1 | – |
| Cc1[nH]c2ccccc2c1-c1ccnc(N[C@H](CO)CC(C)C)n1 | > 50.1 | – |
| CCNS(=O)(=O)c1csc(C(=O)Nc2cc(C)on2)c1 | > 50.1 | – |
| Cn1ncc(C(=O)N2CCN(C(=O)c3ccco3)CC2)c1Cl | > 50.1 | – |
| CCOCC(=O)N1CCCn2ccnc2C1C(C)C (stereo not drawn) | > 50.1 | – |
| O=C(CN1CCCc2cc(F)cc(F)c21)Nc1ccc(Br)cn1 | 30.4 | – |
| CC(=O)NCCCS(=O)(=O)c1ncccc1Cl | > 50.1 | – |
| Cc1cnc(N)c(C)c1 | > 50.1 | – |
| CC(=O)N1CCN(c2ncnc3cc4c(cc23)OCCO4)CC1 | > 50.1 | – |
| Cc1cc(CN)nc(N(C)C)n1 | > 50.1 | – |
| Cc1[nH]c2ccccc2c1-c1ccnc(N[C@@H](CO)C(C)C)n1 | 19.8 | – |
| OC1(CNCCOCc2ccc(Cl)cc2)CCCNC1 (stereo not drawn) | > 50.1 | – |
| COc1ccc(CCNC(=O)NCCCC(N)=O)cc1 | > 50.1 | – |
| CC(=O)N1C[C@@H](c2ccsc2)[C@@H]2CN(Cc3ccccc3C)CC[C@@H]21 | 18.9 | – |
| CNc1ncc2c(n1)CN(c1cccc(OC)c1)C2=O | > 50.1 | – |
| Cc1c(S(=O)(=O)NC2CC2)cc2c(C)cc(=O)n3c2c1CCC3 | 48.5 | – |
| CCCn1c(NCCc2ccccc2)nc2c(C)nn(C)c2c1=O | 31.5 | – |
| OC1(Cc2ccccc2F)CCNC1 (stereo not drawn) | > 50.1 | – |
| O=C(NC1CCCSC1)N(CCO)C1CC1 (stereo not drawn) | > 50.1 | – |

| SMILES | IC50 [1] [µM] | further results |
| --- | --- | --- |
| CNC(=O)[C@@H]1CSCN1c1ccc(C(F)(F)F)cn1 | > 50.1 | – |
| NC(=O)C[C@@H](N)c1ccccc1Cl | > 50.1 | – |
| CSc1ccccc1NCC(=O)NC1CC1 | > 50.1 | – |
| O=C(CC(F)(F)F)NC1CCN(CC2CC2)C1 (stereo not drawn) | > 50.1 | – |
| Cc1cc(NCCO)nc(N2CCC(Cc3ccccc3)CC2)c1C#N | 10.7 | – |
| Cc1ccc(C)c(C(=O)N2CCC3(CCC(=O)N(CC(N)=O)C3)CC2)c1 | > 50.1 | – |
| CC(=O)NCc1cccc(OCc2ccccn2)c1 | > 50.1 | – |
| CCc1cc(=O)[nH]c(-c2ccc(NCCc3ccc(O)cc3)nc2)n1 | 1.18 | – |
| NC1CCCCNC1=O (stereo not drawn) | > 50.1 | – |
| Cc1nn(C)c2c(=O)n(Cc3ccc(F)cc3)nnc12 | > 50.1 | – |
| CC1(C)CC(n2cccn2)C(C)(C)O1 (stereo not drawn) | > 50.1 | – |
| CCCC(N)C(=O)N(C)Cc1cccc(N(C)C)c1 (stereo not drawn) | > 50.1 | – |
| COCCNC(=O)Nc1cc(Cl)ccc1OC | > 50.1 | – |
| O=C(c1ccc(-c2ccc(O)nc2)s1)N1CCCCC1 | > 50.1 | – |
| CCc1ccccc1NC(=O)C1=NN(C)C(=O)CC1 | > 50.1 | – |
| CSCCC1c2nc[nH]c2CCN1Cc1cc(Cl)ccc1O (stereo not drawn) | 12.3 | – |
| Cc1ccc(CN2CCCn3c(nc(Cn4ccnc4)cc3=O)C2)o1 | > 50.1 | – |
| COc1ccccc1NC(=O)CC#N | > 50.1 | – |
| CS(=O)(=O)CCN1CCC(C(N)=O)CC1 | > 50.1 | – |
| CCNc1ccc(C(F)(F)F)cn1 | > 50.1 | – |
| Cn1cc(CN2C[C@@H]3COC[C@H](C(=O)Nc4cccnc4)[C@@H]3C2)cn1 | > 50.1 | – |
| Cn1ncc(C(=O)N2CCN(CCS(C)(=O)=O)CC2)c1Cl | > 50.1 | – |
| O=C(NCCn1cnc(C2CCCC2)cc1=O)NCc1cccs1 | 7.44 | – |
| CCn1c(SCC(=O)O)nnc1C(C)NC(=O)c1ccc(Cl)cc1 (stereo not drawn) | > 50.1 | – |
| CC(C)C(=O)N1CCN(c2ncnc3cc4c(cc23)OCCO4)CC1 | > 50.1 | – |
| Cc1cccc(CN2CCc3nnc(CN4CCCCC4)n3CC2)n1 | > 50.1 | – |
| CC(CN)C(=O)Nc1cn[nH]c1 (stereo not drawn) | > 50.1 | – |

Reference: ChEMBL document CHEMBL3988442, “University of Dundee, Small-Polar-MMV Screening Library” (2021)
